According to patent publication US20210221784A1, “COMPOUNDS AND COMPOSITIONS FOR THE TREATMENT OF PAIN” (Université de Strasbourg, priority 2018, published 2021):

Columns and labels:
hNPFFR1 = target: T1, hNPFFR1 (Homo sapiens, UniProt Q9GZQ6); assay: Radioligand binding competition, membranes from CHO cells expressing hNPFFR1; details: 0.015 nM [D-Tyr1[125I], N-MePhe3]-NPFF, 1 hr at 25° C., read-out: NPFF1-R Ki
T1 construct: expressed in transfected cells; membranes
In short: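 CHO membranes (5–10 μg protein) stably expressing hNPFFR1 or hNPFFR2 incubated 1 h at 25 °C with 0.015 nM [D-Tyr1[125I], N-MePhe3]-NPFF in HEPES pH 7.4 with Ca2+, Mg2+, 0.1% BSA. Non-specific binding defined with 10 μM RFRP-3; bound radioactivity counted after GF/B filtration.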

hNPFFR2 = target: T2, hNPFFR2 (Homo sapiens, UniProt Q9Y5X5); assay: Radioligand binding competition, membranes from CHO cells expressing hNPFFR2; details: 0.015 nM [D-Tyr1[125I], N-MePhe3]-NPFF, 1 hr at 25° C., read-out: NPFF2-R Ki
T2 construct: expressed in transfected cells; membranes
Procedure: Competition experiments with membranes from CHO cells stably expressing hNPFFR1 and hNPFFR2 were performed essentially as described in Elhabazi, K., et al. Neuropharmacology, 2013. 75C, 164-171., Briefly, hNPFFR1 or hNPFFR2 membranes (5 to 10 μg of proteins) were incubated (1 hr at 25° C.; 0.25 mL total volume) with 0.015 nM [D-Tyr1[125I], N-MePhe3]-NPFF (Hartmann Analytic GmbH) in 50 mM HEPES (pH 7.4), 1 mM CaCl2, 1 mM MgCl2 and 0.1% bovine serum albumin. Non-specific binding was determined in the presence of 10 μM RFRP-3. Incubation was terminated by rapid filtration through a 96-well GF/B unifilter apparatus (Perkin Elmer Life and Analytical Sciences, Courtaboeuf, France). Unifilters were washed five times with binding buffer, then dried for 1 h at 65° C. After addition of 40 μL scintillation cocktail (Microscint-O, Perkin Elmer) per well, bound radioactivity was determined on a TopCount scintillation counter (Perkin Elmer).

hNPFF2R = target: T3, hNPFF2R (Homo sapiens, UniProt Q9Y5X5); assay: Glo Sensor cAMP assay in HEK-293 expressing hNPFF2R; format: cell-based; details: cells expressing hNPFF2R; forskolin 0.5 μM
T3 construct: expressed in transfected cells
Procedure: The functional characterization of the selected compounds was performed by Glo Sensor cAMP kinetic assay, a validated approach for measuring Gαi/s activation by GPCRs (DiRaddo et al., 2014; Gilissen et al., 2015). HEK-Glo cells expressing either NPFF1 or NPFF2 receptors were suspended (10^6 cells per mF) in physiological Hepes buffer (10 mM HEPES, 0.4 mM NaH2PO4, 137.5 mM NaCl, 1.25 mM MgCl2, 1.25 mM CaCl2, 6 mM KCl, 10 mM glucose and 1 mg/mF bovine serum albumin, pH 7.4) supplemented with 1 mM D-Fuciferine. After equilibration for 2 h at 25° C., luminescence levels were recorded in real time in 96-well plates using a Flexstation^R 3 (Molecular Devices, Sunnyvale Calif., USA). Non-specific effect of the different compounds was evaluated in HEK-Glo cells without any recombinant human RF-amide receptors. To test the agonist activity on NPFF1R and NPFF2R, compounds were injected 15 minutes before addition of forskolin (0.5 μM) and readings were pursued for 90 minutes. […] According to their preferential coupling to Gi/o proteins, the stimulation of NPFF1R and NPFF2R by agonists was monitored as a dose-dependent reduction in steady-state luminescence levels, reflecting the inhibition of forskolin-induced cAMP accumulation. […]

C57BF6/N male mice [1] = assay: Morphine-induced hyperalgesia and tolerance, tail immersion test; format: in vivo
C57BF6/N male mice [2] = assay: Neuropathic pain model (chronic constriction injury), Von Frey test; format: in vivo
[3] = Solubility in dosing vehicle; format: physicochemical; details: Tween 80 (0.5%) or Kolliphor EL (10%)

T1 sequence (Q9GZQ6 whole entry): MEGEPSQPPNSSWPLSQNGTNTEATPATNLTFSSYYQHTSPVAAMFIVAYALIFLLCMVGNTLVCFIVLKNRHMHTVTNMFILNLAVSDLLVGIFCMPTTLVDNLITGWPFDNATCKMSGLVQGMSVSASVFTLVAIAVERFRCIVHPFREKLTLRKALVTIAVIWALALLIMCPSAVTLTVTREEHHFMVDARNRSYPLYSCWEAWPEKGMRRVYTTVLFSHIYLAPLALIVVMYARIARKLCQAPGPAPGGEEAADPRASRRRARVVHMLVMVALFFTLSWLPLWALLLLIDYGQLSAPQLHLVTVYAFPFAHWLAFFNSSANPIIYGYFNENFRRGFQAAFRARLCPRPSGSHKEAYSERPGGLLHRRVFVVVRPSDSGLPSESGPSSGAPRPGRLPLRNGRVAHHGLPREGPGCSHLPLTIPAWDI
T3 sequence (Q9Y5X5 whole entry): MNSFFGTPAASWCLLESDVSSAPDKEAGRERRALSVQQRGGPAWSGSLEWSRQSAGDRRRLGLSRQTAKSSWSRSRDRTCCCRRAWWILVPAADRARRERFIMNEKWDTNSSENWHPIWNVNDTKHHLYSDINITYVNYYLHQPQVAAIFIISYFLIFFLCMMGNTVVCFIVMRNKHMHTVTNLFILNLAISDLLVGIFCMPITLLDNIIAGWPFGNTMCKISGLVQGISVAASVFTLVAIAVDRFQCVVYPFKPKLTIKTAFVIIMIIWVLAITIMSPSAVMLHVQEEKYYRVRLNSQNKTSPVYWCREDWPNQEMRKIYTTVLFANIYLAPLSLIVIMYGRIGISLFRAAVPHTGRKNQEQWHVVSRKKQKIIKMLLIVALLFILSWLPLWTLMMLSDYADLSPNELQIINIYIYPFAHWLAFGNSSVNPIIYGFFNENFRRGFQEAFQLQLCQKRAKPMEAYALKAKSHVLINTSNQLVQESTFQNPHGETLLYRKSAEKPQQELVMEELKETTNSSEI
T2 sequence (Q9Y5X5 whole entry): as above

In the case of Nc1ccc(-c2cccc(Cl)c2Cl)c(N)n1 [Compound 1j, 3-(2,3-dichlorophenyl)pyridine-2,6-diamine], the Ki (hNPFFR1) is reported as 20 ± 2 nM, the Ki (hNPFFR2) is reported as 2000 nM and the “effect of compound tested alone (agonist activity)” value (hNPFF2R) is reported as “had no effect”. For the same compound, the “Hyperalgesia index (HI) d1 to d7” value (C57BF6/N male mice [1]; daily morphine 10 mg/kg s.c., 1j 5 mg/kg oral or vehicle before morphine, FIG. 2B) was 0.1±3, the “morphine analgesia at day 0, effect of co-administration” value (C57BF6/N male mice [1]; mouse, in vivo) was “not significantly modified” and the “peak of analgesia at day 0” value (C57BF6/N male mice [1]; mouse, in vivo) was 19±0.8. The “peak of analgesia at day 8” value (C57BF6/N male mice [1]; mouse, in vivo) was 14±0.9, the “mechanical allodynia after CCI (allodynia index d11-d21), drug alone” value (C57BF6/N male mice [2]; morphine 3 mg/kg sc. alone or 1j 5 mg/kg p.o. alone, FIG. 4B) was “significantly attenuated the mechanical allodynia” and the “mechanical allodynia after CCI (allodynia index d11-d21), pre-treatment before morphine” value (C57BF6/N male mice [2]; mouse, in vivo) was “significantly enhanced morphine analgesia effect on neuropathic pain”. The “solubility in vehicle (Kolliphor EL vs Tween 80)” value [3] was “better solubility in Kolliphor EL”.
